Among the data in patent US11306092B2, “Amino indole compounds useful as TLR inhibitors” (BRISTOL-MYERS SQUIBB COMPANY, priority 2017, dated 2022) are IC50 values, retold here.

Bounds are passed on as bounds.

Holding throughout (format): cell-based
The target in assay [1] is T1, human TLR8 (Homo sapiens, UniProt Q9NR97).
T1 construct: host or cells: HEK-Blue cells
T1 sequence (Q9NR97 27-1041): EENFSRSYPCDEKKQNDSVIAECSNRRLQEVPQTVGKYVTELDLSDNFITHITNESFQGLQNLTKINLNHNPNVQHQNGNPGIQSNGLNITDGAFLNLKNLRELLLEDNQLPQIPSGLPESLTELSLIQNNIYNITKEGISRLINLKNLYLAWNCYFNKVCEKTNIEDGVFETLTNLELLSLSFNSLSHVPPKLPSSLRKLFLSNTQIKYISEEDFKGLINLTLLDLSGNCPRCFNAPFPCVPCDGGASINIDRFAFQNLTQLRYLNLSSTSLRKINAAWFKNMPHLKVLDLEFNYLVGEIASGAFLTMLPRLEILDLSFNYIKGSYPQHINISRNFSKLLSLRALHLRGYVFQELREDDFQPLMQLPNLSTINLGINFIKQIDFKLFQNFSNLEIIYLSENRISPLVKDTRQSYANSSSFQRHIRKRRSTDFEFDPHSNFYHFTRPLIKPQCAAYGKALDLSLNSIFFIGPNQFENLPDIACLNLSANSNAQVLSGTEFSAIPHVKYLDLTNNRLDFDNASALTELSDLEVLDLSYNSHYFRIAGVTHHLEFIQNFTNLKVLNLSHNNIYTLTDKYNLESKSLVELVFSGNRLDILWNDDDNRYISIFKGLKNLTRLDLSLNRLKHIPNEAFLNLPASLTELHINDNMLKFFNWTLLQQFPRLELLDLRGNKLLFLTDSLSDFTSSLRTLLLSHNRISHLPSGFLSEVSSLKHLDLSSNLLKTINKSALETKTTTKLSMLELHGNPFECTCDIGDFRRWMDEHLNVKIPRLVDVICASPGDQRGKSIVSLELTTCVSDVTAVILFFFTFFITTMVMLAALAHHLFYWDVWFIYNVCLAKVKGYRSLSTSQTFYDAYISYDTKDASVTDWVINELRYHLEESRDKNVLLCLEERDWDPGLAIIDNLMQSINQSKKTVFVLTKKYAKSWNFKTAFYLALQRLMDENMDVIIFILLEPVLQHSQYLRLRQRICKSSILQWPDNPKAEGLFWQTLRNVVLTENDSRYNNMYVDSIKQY
The assay can be described thus: TLR8 inhibition reporter assay (HEK-Blue SEAP reporter). Particulars: HEK-Blue cells overexpressing human TLR8; R848 15.9 μM; 22 hour incubation. In a few lines: (§1)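 Agonists used: gardiquimod 7.5 μM (TLR7), R848 15.9 μM (TLR8), ODN2006 5 nM (TLR9), added after 30 min room-temperature compound pre-treatment (0.05 nM–50 μM) of receptor-overexpressing HEK-Blue cells. SEAP reporter (NF-κB/AP-1 driven) read after 22 h at 37 °C; inhibition scaled between agonist+DMSO and reference-inhibitor wells.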

The target of assay [2] is T2, human TLR9 (Homo sapiens, UniProt Q9NR96).
T2 construct: host or cells: HEK-Blue cells
T2 sequence (Q9NR96 26-1032): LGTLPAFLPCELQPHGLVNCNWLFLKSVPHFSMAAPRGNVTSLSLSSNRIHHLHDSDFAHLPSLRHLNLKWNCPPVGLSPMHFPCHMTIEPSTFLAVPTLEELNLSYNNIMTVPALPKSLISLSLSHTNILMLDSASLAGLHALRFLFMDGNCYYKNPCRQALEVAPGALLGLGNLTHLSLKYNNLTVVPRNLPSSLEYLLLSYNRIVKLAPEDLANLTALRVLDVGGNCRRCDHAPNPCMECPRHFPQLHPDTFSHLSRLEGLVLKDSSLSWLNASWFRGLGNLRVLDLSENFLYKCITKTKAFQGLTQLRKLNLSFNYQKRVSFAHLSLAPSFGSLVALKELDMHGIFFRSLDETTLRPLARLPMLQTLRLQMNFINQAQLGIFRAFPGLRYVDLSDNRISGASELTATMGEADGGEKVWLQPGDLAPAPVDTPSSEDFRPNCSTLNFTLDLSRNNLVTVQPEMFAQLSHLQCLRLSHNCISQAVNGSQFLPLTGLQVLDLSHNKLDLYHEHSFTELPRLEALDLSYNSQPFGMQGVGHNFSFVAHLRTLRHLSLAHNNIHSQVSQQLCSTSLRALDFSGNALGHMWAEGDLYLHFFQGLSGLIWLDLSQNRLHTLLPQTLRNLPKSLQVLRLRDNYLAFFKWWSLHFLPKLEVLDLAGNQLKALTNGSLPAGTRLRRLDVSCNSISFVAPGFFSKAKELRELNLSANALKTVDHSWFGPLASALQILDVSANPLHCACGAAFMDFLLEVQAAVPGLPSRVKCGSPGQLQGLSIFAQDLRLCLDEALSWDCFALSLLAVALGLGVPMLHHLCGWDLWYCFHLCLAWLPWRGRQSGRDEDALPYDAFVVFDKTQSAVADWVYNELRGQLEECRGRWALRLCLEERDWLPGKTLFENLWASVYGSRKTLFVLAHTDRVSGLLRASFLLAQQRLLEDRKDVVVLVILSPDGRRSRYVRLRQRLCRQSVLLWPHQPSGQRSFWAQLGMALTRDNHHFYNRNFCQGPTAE
The assay can be described thus: TLR9 inhibition reporter assay (HEK-Blue SEAP reporter). Particulars: HEK-Blue cells overexpressing human TLR9; ODN2006 5 nM; 22 hour incubation. In outline:
as §1

In assay [3] the target is T3, human TLR7 (Homo sapiens, UniProt Q9NYK1).
T3 construct: host or cells: HEK-Blue cells
T3 sequence (Q9NYK1 27-1049): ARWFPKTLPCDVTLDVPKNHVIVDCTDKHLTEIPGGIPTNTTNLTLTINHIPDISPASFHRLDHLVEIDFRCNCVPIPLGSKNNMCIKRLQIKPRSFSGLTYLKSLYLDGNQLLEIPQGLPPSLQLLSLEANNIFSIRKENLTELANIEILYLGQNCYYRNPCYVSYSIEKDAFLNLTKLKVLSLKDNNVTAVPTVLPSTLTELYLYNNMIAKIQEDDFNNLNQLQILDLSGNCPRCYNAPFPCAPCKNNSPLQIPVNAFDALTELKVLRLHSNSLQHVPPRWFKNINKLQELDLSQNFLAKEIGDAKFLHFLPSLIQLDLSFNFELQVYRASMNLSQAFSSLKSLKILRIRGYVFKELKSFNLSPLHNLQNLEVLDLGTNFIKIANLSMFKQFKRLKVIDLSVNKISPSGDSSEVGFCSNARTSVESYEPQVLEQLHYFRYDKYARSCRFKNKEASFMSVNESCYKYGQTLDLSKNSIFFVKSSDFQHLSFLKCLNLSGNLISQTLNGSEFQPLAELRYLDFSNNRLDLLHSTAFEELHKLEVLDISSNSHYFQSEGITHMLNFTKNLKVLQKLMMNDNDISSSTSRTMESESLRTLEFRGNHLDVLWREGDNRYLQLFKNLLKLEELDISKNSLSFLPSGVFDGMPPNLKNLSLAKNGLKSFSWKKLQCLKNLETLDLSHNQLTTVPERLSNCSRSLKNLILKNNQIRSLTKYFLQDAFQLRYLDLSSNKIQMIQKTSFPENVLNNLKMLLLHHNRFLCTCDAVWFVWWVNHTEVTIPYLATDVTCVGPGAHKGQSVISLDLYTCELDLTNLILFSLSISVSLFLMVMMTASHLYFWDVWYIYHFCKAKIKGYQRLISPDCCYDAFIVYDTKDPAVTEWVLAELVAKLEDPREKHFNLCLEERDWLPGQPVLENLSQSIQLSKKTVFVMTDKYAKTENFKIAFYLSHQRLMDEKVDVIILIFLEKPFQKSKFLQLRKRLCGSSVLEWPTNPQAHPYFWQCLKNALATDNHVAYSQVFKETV
As to the kind of experiment: TLR7 inhibition reporter assay (HEK-Blue SEAP reporter). The conditions noted are these: HEK-Blue cells overexpressing human TLR7; gardiquimod 7.5 μM; 22 hour incubation. In outline: as §1

As for `COc1ccc(-c2[nH]c3ccc(NC(=O)[C@H](N)CCC(N)=O)cc3c2C(C)C)cc1OC` [Example 22, (R)-2-amino-N1-(2-(3,4-dimethoxyphenyl)-3-isopropyl-1H-indol-5-yl)pentanediamide], the IC50 in assay [1] worked out at 213 nM; in assay [2], 19300 nM; in assay [3], 670 nM.
Regarding `COc1ccc(-c2[nH]c3ccc(NC(=O)[C@@H](N)CCCCN)cc3c2C(C)C)cc1OC` [Example 23, (S)-2,6-diamino-N-(2-(3,4-dimethoxyphenyl)-3-isopropyl-1H-indol-5-yl)hexanamide], the IC50 in assay [1] was 433 nM; in assay [2] it was above 50000 nM; in assay [3] it was 969 nM.
Taken in the same sequence, the figures for `COc1ccc(-c2[nH]c3ccc(NC(=O)[C@@H](N)CCC(=O)O)cc3c2C(C)C)cc1OC` [Example 24, (S)-4-amino-5-((2-(3,4-dimethoxyphenyl)-3-isopropyl-1H-indol-5-yl)amino)-5-oxopentanoic acid] were 216 nM, above 50000 nM and 1080 nM.
`COc1ccc(-c2[nH]c3ccc(NC(=O)[C@@H](N)c4ccccc4)cc3c2C(C)C)cc1OC` [Example 25, (S)-2-amino-N-(2-(3,4-dimethoxyphenyl)-3-isopropyl-1H-indol-5-yl)-2-phenylacetamide]: the figures for the IC50 in assay [1], in assay [2] and in assay [3] were 101 nM, above 50000 nM and 621 nM, respectively.
For `COc1ccc(-c2[nH]c3ccc(NC(=O)[C@@H](N)C4CCCCC4)cc3c2C(C)C)cc1OC` [Example 26, (S)-2-amino-2-cyclohexyl-N-(2-(3,4-dimethoxyphenyl)-3-isopropyl-1H-indol-5-yl)acetamide], the IC50 in assay [1] turned out to be 194 nM; in assay [2] it was 11300 nM; in assay [3], 1180 nM.
On the same counts, the results for `CC(C)c1c(-c2ccnc3[nH]ncc23)[nH]c2ccc(N3CCNC3=O)cc12` [Example 27, 1-(3-isopropyl-2-(1H-pyrazolo[3,4-b]pyridin-4-yl)-1H-indol-5-yl)imidazolidin-2-one] are 14 nM, above 50000 nM and 180 nM.
Consider `COc1ccc(-c2[nH]c3ccc(N4CC(N5CCCNCC5)C4)cc3c2C(C)C)cc1OC` [Example 29, 5-(3-(1,4-diazepan-1-yl)azetidin-1-yl)-2-(3,4-dimethoxyphenyl)-3-isopropyl-1H-indole], for which the IC50 in assay [1] worked out at 27 nM; in assay [2] it was 3750 nM; in assay [3], 760 nM.
Taken in the same sequence, the figures for `COc1ccc(-c2[nH]c3ccc(NC4CCC(N(C)CCN(C)C)CC4)cc3c2C(C)C)cc1OC` (stereo not drawn) [Example 35, N1-(2-(3,4-dimethoxyphenyl)-3-isopropyl-1H-indol-5-yl)-N4-(2-(dimethylamino)ethyl)-N4-methylcyclohexane-1,4-diamine] were 261 nM, 608 nM and 129 nM.
As to `COc1ccc(-c2[nH]c3ccc(NC4CCC(NCCN5CCOCC5)CC4)cc3c2C(C)C)cc1OC` (stereo not drawn) [Example 47, N1-(2-(3,4-dimethoxyphenyl)-3-isopropyl-1H-indol-5-yl)-N4-(2-morpholinoethyl)cyclohexane-1,4-diamine], the IC50 amounted to 276 nM in assay [1], 624 nM in assay [2] and 222 nM in assay [3].
On the same counts, the results for `COc1ccc(-c2[nH]c3ccc(NC4CCC(N5CCN(c6ccncc6)CC5)CC4)cc3c2C(C)C)cc1OC` (stereo not drawn) [Example 59, 2-(3,4-dimethoxyphenyl)-3-isopropyl-N-(4-(4-(pyridin-4-yl)piperazin-1-yl)cyclohexyl)-1H-indol-5-amine] are 106 nM, 218 nM and 196 nM.
As for `COc1ccc(-c2[nH]c3ccc(NC4CCC(N5CCN(c6ccncc6)CC5)CC4)cc3c2C(C)C)cc1OC` (stereo not drawn) [Example 60, 2-(3,4-dimethoxyphenyl)-3-isopropyl-N-(4-(4-(pyridin-4-yl)piperazin-1-yl)cyclohexyl)-1H-indol-5-amine], the IC50 in assay [1] turned out to be 112 nM; in assay [2], 253 nM; in assay [3] it was 153 nM.
Taken in the same sequence, the figures for `COc1ccc(-c2[nH]c3ccc(NC4CCC(N5CCN(C6CCN(C)CC6)CC5)CC4)cc3c2C(C)C)cc1OC` (stereo not drawn) [Example 61, 2-(3,4-dimethoxyphenyl)-3-isopropyl-N-(4-(4-(1-methylpiperidin-4-yl)piperazin-1-yl)cyclohexyl)-1H-indol-5-amine] were 174 nM, 555 nM and 144 nM.
Consider `COc1ccc(-c2[nH]c3ccc(NC4CCC(N5CCN(C6CCN(C)CC6)CC5)CC4)cc3c2C(C)C)cc1OC` (stereo not drawn) [Example 62, 2-(3,4-dimethoxyphenyl)-3-isopropyl-N-(4-(4-(1-methylpiperidin-4-yl)piperazin-1-yl)cyclohexyl)-1H-indol-5-amine], for which the IC50 was determined as 212 nM in assay [1], 323 nM in assay [2] and 211 nM in assay [3].
